How the values were obtained:
Type in all cases: cell-based
[1] = molecular target: T1, MELK (Homo sapiens, UniProt Q14680); experiment: Immunoblot of MELK depletion in AMO1 cells; details: additional replicates
T1 construct: endogenous in cells; host or cells: AMO1
Experimental: (§1) Cells were lysed in buffer containing 20 mM HEPES 7.2, 150 mM NaCl, and 1% Triton X-100, supplemented with fresh protease and phosphatase inhibitors (Invitrogen, #78440), cleared by centrifugation at 12,000 × g for 10 min, and analyzed by BCA protein assay (Thermo Fisher Scientific, #23227). Equal protein amounts were loaded, separated by SDS-PAGE, electrotransferred to nitrocellulose membranes using the iBLOT2 system (Invitrogen), and blocked in 5% nonfat milk solution for 60 min. Membranes were probed with primary antibodies at 1:1000 dilution in 5% milk at 4 °C overnight. Signal was detected using appropriate horseradish peroxidase (HRP)-conjugated secondary antibodies at 1:10,000 in 5% milk at room temperature for 1–2 h. Bands were visualized by the Azure 600 western blot imaging system (Azure Biosystems). For in vitro ubiquitination assays performed with Me-Ub, bands were visualized by the Odyssey CLx Imager (LI‑COR) after incubating the blots with the IRDye 800CW (LI-COR) secondary antibodies at 1:10,000 in Intercept Blocking Buffer (LI-COR) at room temperature for 1–2 h. […]
(§2) The kinome selectivity of G6374 was assessed at 1 μM for 1 h versus a panel of 220 human kinases (SelectScreen Kinase Profiling Services, Thermo Fisher Scientific). […]

[2] = molecular target: T2, TAO2 (Homo sapiens, UniProt Q9UL54); experiment: Immunoblot of TAO2 depletion; details: AMO1 and KMS27 cells, 4 h
T2 construct: endogenous in cells; host or cells: AMO1, KMS27
Experimental: as §1, §2

[3] = molecular target: T3, IRE1 E621A, E836A (Homo sapiens, UniProt O75460+P40337, E621A/E836A); experiment: NanoLuc signal IRE1 depletion, IRE1 E621A, E836A, HEK293T cells; details: E836A double mutant
T3 construct: N2731; host or cells: HEK293T
Experimental: (§3) 8 × 10^5 293T cells per well were seeded in 6-well plates (Costar, #3516) and incubated at 37 °C, 5% CO2 for 6 h. A mixture of 0.2 µg ERN1 (IRE1)-NanoLuc Fusion Vector (Promega, NV1321), 2 µg HaloTag-VHL Fusion Vector (Promega, N2731), 6 µl FuGENE HD Transfection Reagent (Promega, E2311), and 100 µL Opti-MEM I reduced serum medium (Gibco, #31985062) per well was incubated at room temperature for 20 min before adding to cells. For expression of IRE1 mutants, site-directed mutagenesis was performed using the ERN1-NanoLuc Fusion Vector as the DNA template, and the transfection mixture was prepared in the same way as WT IRE1. After 18 h, cells from 6-well plates were trypsinized, resuspended in Opti-MEM I reduced serum medium, and reseeded into 96-well plates (Costar, #3917), with or without the addition of HaloTag NanoBRET 618 Ligand (Promega, G9801). After 18 h of incubation, a titration of G6374 (dilutions made in Opti-MEM I reduced serum medium) was added to the cells. After 2 h of G6374 treatment, NanoBRET Nano-Glo Substrate (Promega, N1571) was added to cells. The 96-well plates were imaged by GloMax Discover Microplate Reader (Promega, GM3000) with the default “BRET: NanoBRET 618” protocol (Donor: 450 BP; Acceptor: 600 LP; Integration: 0.3 s). Data analysis was performed according to the user manual.

[4] = molecular target: T4, IRE1 (Homo sapiens, UniProt O75460+P40337); experiment: NanoLuc signal IRE1 depletion, WT IRE1-NanoLuc, HEK293T cells
T4 construct: N2731 (HaloTag-VHL); host or cells: HEK293T
Experimental: as §3

[5] = molecular target: IRE1 (Homo sapiens, UniProt O75460); experiment: Immunoblot of endogenous IRE1 depletion in KMS27 cells; set-up: Immunoblot (IB) analysis of endogenous IRE1 depletion in AMO1 cells; endogenous in cells; host or cells: AMO1, KMS27, H929
Experimental: Cells were lysed in buffer containing 20 mM HEPES 7.2, 150 mM NaCl, and 1% Triton X-100, supplemented with fresh protease and phosphatase inhibitors (Invitrogen, #78440), cleared by centrifugation at 12,000 × g for 10 min, and analyzed by BCA protein assay (Thermo Fisher Scientific, #23227). Equal protein amounts were loaded, separated by SDS-PAGE, electrotransferred to nitrocellulose membranes using the iBLOT2 system (Invitrogen), and blocked in 5% nonfat milk solution for 60 min. Membranes were probed with primary antibodies at 1:1000 dilution in 5% milk at 4 °C overnight. Signal was detected using appropriate horseradish peroxidase (HRP)-conjugated secondary antibodies at 1:10,000 in 5% milk at room temperature for 1–2 h. Bands were visualized by the Azure 600 western blot imaging system (Azure Biosystems). For in vitro ubiquitination assays performed with Me-Ub, bands were visualized by the Odyssey CLx Imager (LI‑COR) after incubating the blots with the IRDye 800CW (LI-COR) secondary antibodies at 1:10,000 in Intercept Blocking Buffer (LI-COR) at room temperature for 1–2 h.

[6] = system: IRE1 L577D, V586D, A597D, L644D, L695D, E651A; experiment: NanoBRET with IRE1 point mutants disrupting IRE1:G6374 interactions; details: each of L577D, HEK293T
Experimental: as §3

[7] = molecular target: T5, PKD1 (Homo sapiens, UniProt Q15139); experiment: Immunoblot of PKD1 degradation in KMS27 cells; details: N=3
T5 construct: endogenous in cells; host or cells: KMS27
Experimental: as §1, §2

T3 sequence (O75460 19-977 E621A/E836A): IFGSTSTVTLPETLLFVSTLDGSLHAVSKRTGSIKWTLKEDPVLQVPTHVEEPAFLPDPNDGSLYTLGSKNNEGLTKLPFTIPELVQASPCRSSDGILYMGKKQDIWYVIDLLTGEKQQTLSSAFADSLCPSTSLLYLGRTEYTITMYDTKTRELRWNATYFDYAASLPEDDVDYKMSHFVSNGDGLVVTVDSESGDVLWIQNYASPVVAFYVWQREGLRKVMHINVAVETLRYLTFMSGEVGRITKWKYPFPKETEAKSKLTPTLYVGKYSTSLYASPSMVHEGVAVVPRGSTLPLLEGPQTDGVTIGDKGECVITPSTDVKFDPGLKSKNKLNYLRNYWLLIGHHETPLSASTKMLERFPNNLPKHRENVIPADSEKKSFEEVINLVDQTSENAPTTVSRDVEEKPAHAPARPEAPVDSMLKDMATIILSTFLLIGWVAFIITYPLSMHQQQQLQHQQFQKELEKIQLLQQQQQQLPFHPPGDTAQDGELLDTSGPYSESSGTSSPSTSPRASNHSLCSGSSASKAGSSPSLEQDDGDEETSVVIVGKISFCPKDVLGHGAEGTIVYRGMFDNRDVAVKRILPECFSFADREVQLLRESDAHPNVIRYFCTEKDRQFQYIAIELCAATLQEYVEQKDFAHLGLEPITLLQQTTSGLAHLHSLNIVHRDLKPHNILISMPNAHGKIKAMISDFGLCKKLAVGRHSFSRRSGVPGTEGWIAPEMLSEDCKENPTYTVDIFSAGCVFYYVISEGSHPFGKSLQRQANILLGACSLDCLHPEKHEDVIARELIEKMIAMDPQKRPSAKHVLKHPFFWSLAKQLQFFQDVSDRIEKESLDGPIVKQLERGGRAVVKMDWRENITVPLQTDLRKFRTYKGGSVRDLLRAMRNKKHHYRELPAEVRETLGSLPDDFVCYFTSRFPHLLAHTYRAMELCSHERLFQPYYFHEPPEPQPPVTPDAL
T3 sequence (P40337 whole entry): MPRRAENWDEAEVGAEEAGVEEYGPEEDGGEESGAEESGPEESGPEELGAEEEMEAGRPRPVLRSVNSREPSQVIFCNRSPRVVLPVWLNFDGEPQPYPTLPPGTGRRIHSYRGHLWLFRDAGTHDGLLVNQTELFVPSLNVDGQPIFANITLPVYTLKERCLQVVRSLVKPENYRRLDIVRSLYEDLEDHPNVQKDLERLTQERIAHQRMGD
T3 sequence (Q15369 whole entry partner): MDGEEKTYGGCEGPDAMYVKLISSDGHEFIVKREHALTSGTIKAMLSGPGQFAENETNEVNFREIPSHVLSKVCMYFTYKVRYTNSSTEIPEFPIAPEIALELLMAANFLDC
T3 sequence (Q15370 whole entry partner): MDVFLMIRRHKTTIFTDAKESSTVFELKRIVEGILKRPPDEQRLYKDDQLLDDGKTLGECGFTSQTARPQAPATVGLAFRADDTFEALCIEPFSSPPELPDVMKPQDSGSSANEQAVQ
T3 sequence (Q13617 whole entry partner): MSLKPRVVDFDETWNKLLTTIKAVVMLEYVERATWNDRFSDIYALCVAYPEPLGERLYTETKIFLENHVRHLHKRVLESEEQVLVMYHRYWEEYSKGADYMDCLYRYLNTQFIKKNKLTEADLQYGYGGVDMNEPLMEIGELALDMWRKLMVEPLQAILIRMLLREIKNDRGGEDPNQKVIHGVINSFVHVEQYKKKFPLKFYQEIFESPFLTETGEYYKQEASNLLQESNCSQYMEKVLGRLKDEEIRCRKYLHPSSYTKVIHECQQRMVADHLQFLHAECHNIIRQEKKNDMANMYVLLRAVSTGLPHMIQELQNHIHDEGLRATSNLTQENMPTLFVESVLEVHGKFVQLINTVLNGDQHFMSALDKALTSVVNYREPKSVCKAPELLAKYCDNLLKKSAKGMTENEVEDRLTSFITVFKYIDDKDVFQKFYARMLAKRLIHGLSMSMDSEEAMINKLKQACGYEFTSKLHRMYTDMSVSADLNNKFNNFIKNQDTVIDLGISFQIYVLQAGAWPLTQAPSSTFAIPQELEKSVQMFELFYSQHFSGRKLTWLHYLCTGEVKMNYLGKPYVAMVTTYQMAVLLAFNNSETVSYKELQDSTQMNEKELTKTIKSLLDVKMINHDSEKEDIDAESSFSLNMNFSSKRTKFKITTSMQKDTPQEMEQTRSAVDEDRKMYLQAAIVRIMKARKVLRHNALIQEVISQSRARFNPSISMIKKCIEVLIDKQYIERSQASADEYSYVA
T3 sequence (P62877 whole entry partner): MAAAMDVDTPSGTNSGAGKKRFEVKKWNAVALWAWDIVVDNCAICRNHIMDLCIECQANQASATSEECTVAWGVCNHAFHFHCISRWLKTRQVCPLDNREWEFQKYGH
Sequence of IRE1 (Homo sapiens, UniProt O75460) (O75460 19-977): as the sequence (O75460 19-977 E621A/E836A) above, with A603E, A818E counted along it
T4 sequence (O75460 19-977): as the sequence (O75460 19-977 E621A/E836A) above, with A603E, A818E counted along it
T4 sequence (P40337 whole entry): as the sequence (P40337 whole entry) above
T4 sequence (Q15369 whole entry partner): as the sequence (Q15369 whole entry partner) above
T4 sequence (Q15370 whole entry partner): as the sequence (Q15370 whole entry partner) above
T4 sequence (Q13617 whole entry partner): as the sequence (Q13617 whole entry partner) above
T4 sequence (P62877 whole entry partner): as the sequence (P62877 whole entry partner) above
T5 sequence (Q15139 whole entry): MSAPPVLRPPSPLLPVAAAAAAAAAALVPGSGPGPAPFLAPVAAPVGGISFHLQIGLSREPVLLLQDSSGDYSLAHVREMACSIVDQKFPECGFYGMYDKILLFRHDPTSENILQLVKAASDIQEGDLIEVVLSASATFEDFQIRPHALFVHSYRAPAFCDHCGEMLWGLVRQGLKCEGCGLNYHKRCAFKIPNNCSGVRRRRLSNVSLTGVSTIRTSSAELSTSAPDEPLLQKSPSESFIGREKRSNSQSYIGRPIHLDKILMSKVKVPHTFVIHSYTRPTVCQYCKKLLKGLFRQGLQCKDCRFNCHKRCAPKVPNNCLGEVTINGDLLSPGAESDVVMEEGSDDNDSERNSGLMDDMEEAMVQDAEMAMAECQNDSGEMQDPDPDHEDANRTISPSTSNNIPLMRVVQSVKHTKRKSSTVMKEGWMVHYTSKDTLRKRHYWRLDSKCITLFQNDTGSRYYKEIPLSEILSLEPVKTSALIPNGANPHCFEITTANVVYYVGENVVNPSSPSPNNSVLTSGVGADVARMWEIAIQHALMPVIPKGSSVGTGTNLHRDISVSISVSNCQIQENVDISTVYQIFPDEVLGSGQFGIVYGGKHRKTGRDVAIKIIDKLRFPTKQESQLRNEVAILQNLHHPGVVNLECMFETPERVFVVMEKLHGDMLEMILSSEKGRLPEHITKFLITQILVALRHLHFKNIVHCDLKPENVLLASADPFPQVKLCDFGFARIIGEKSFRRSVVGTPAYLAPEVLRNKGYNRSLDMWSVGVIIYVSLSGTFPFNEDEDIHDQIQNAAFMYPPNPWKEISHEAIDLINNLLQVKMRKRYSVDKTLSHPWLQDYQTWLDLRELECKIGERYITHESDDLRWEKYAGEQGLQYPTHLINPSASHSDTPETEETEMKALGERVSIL
T2 sequence (Q9UL54 whole entry): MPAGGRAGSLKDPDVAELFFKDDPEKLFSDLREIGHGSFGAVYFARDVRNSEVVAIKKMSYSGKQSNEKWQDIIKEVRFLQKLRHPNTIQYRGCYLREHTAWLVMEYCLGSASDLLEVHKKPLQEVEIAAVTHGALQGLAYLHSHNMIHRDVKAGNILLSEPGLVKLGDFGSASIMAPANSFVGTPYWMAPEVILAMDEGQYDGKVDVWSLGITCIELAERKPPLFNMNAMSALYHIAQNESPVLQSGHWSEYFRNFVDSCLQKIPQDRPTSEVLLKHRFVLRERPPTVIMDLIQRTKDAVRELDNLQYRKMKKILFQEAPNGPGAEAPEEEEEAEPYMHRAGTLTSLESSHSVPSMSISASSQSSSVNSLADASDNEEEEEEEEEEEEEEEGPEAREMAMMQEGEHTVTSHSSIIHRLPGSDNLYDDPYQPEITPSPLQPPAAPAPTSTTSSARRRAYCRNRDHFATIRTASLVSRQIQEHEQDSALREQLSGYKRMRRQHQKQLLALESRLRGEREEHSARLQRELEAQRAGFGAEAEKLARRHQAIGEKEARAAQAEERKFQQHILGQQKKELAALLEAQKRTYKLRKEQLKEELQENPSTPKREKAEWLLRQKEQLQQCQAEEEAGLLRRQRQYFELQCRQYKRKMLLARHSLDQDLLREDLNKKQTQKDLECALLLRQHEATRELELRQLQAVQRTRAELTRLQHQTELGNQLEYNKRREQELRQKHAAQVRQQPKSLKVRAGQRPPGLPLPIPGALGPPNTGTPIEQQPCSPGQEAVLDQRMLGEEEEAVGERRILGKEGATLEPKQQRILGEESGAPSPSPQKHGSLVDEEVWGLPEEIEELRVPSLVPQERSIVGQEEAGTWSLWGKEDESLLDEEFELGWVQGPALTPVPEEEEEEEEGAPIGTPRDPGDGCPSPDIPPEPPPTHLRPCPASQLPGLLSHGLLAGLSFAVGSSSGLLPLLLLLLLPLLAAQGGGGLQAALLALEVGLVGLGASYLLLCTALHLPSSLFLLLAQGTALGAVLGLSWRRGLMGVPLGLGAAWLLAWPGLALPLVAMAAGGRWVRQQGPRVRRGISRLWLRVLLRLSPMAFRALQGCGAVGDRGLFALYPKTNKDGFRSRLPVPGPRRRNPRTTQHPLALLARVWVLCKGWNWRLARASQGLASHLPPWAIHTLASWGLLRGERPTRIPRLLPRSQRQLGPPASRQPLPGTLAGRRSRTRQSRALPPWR

Structure (SMILES): Cc1ncsc1-c1ccc(CNC(=O)[C@@H]2C[C@@H](O)CN2C(=O)[C@@H](NC(=O)CCCCN2CCN([C@H]3CC[C@H](Nc4ncc5ccc(=O)n(C(C)C)c5n4)CC3)CC2)C(C)(C)C)cc1 [G6374]
- depletion of MELK [1]: MELK is not depleted
- depletion of TAO2 [2]: did not deplete TAO2
- DC50 [3]: 110 ± 30 nM
- Dmax ([3]; HEK-293T): 67%
- Dmax ([4]; HEK-293T, 2 h, n = 3, mean ± SEM): 78%
- DC50 ([4]; estimated): 130 nM
- Dmax ([5]; KMS-27, immunoblot quantification): 98%
- DC50 ([5]; immunoblot quantification): 130 nM
- G6374-induced IRE1:VHL interaction and IRE1 degradation with IRE1 point mutants [6]: abolish the G6374-induced interaction between IRE1 and VHL
- degradation of PKD1 [7]: no

Reference: article PMC12749748, “Chemically-induced degradation of the endoplasmic-reticulum stress sensor IRE1 by a VHL-recruiting chimera” (Nature Communications, 2025)
